In brackets after ≈: the same amount, converted by molar mass.
Assays:
Type in all cases: cell-based
[1] = system: Ent. aerogenes IFO 12979; assay: MIC by agar dilution, Ent. aerogenes IFO 12979; conditions: Klebsiella aerogenes, IFO12979, 17 h, Mueller-Hinton agar, read-out: Minimal Inhibitory Concentration (MIC)
Outline: (§1)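 Medium: Mueller-Hinton agar with compound in doubling dilutions. Inoculum: 10^6 CFU/ml. Incubation: 35°-37° C. for 17±1 hours.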

[2] = system: Ps. aeruginosa DY-2; assay: MIC by agar dilution, Ps. aeruginosa DY-2; conditions: Pseudomonas aeruginosa, DY2, 17 h; Ps. aeruginosa DY-2; agar dilution, Mueller-Hinton agar; read-out: Minimal Inhibitory Concentration (MIC)
Outline: as §1

[3] = system: Ps. aeruginosa NCTC 10490; assay: MIC by agar dilution, Ps. aeruginosa NCTC 10490; conditions: Pseudomonas aeruginosa, NCTC10490, 17 h, Mueller-Hinton agar, read-out: Minimal Inhibitory Concentration (MIC)
Outline: as §1

[4] = system: E. coli DY-1; assay: MIC by agar dilution, E. coli DY-1; conditions: Escherichia coli, DY1, 17 h; E. coli DY-1; agar dilution, Mueller-Hinton agar; read-out: Minimal Inhibitory Concentration (MIC)
Outline: as §1

[5] = system: Ps. aeruginosa ATCC 10145; assay: MIC by agar dilution, Ps. aeruginosa ATCC 10145; conditions: Pseudomonas aeruginosa, ATCC10145, 17 h, Mueller-Hinton agar, read-out: Minimal Inhibitory Concentration (MIC)
Outline: as §1

[6] = system: E. coli No. 29; assay: MIC by agar dilution, E. coli No. 29; conditions: Escherichia coli, 17 h; E. coli No. 29; agar dilution, Mueller-Hinton agar; read-out: Minimal Inhibitory Concentration (MIC)
Outline: as §1

[7] = system: B. subtilis ATCC 6633; assay: MIC by agar dilution, B. subtilis ATCC 6633; conditions: Bacillus subtilis, ATCC6633, 17 h; B. subtilis ATCC 6633; agar dilution, Mueller-Hinton agar; read-out: Minimal Inhibitory Concentration (MIC)
Outline: as §1

[8] = system: Ent. cloacae IFO 13535; assay: MIC by agar dilution, Ent. cloacae IFO 13535; conditions: Enterobacter cloacae, IFO13535, 17 h; Ent. cloacae IFO 13535; agar dilution, Mueller-Hinton agar; read-out: Minimal Inhibitory Concentration (MIC)
Outline: as §1

[9] = system: Staph. aureus C-57; assay: MIC by agar dilution, Staph. aureus C-57; conditions: Staphylococcus aureus, C57, 17 h, Mueller-Hinton agar, read-out: Minimal Inhibitory Concentration (MIC)
Outline: as §1

[10] = system: Staph. aureus C-5216; assay: MIC by agar dilution, Staph. aureus C-5216; conditions: Staphylococcus aureus, C5216, 17 h, Mueller-Hinton agar, read-out: Minimal Inhibitory Concentration (MIC)
Outline: as §1

[11] = system: E. coli NIHJ JC-2; assay: MIC by agar dilution, E. coli NIHJ JC-2; conditions: Escherichia coli, NIHJJC2, 17 h; E. coli NIHJ JC-2; agar dilution, Mueller-Hinton agar; read-out: Minimal Inhibitory Concentration (MIC)
Outline: as §1

[12] = system: Staph. aureus Smith; assay: MIC by agar dilution, Staph. aureus Smith; conditions: Staphylococcus aureus, 17 h, Mueller-Hinton agar, read-out: Minimal Inhibitory Concentration (MIC)
Outline: as §1

[13] = system: Staph. aureus C-5113; assay: MIC by agar dilution, Staph. aureus C-5113; conditions: Staphylococcus aureus, C5113, 17 h, Mueller-Hinton agar, read-out: Minimal Inhibitory Concentration (MIC)
Outline: as §1

[14] = system: S. epidermidis ATCC 12228; assay: MIC by agar dilution, S. epidermidis ATCC 12228; conditions: Staphylococcus epidermidis, ATCC12228, 17 h; S. epidermidis ATCC 12228; agar dilution, Mueller-Hinton agar; read-out: Minimal Inhibitory Concentration (MIC)
Outline: as §1

[15] = system: K. pneumoniae NCTC 9632; assay: MIC by agar dilution, K. pneumoniae NCTC 9632; conditions: Klebsiella pneumoniae, NCTC9632, 17 h; K. pneumoniae NCTC 9632; agar dilution, Mueller-Hinton agar; read-out: Minimal Inhibitory Concentration (MIC)
Outline: as §1

[16] = system: Ser. marcescens IFO 12648; assay: MIC by agar dilution, Ser. marcescens IFO 12648; conditions: Serratia marcescens, IFO12648, 17 h; Ser. marcescens IFO 12648; agar dilution, Mueller-Hinton agar; read-out: Minimal Inhibitory Concentration (MIC)
Outline: as §1

[17] = system: M. morganii DY-1; assay: MIC by agar dilution, M. morganii DY-1; conditions: Morganella morganii, DY1, 17 h; M. morganii DY-1; agar dilution, Mueller-Hinton agar; read-out: Minimal Inhibitory Concentration (MIC)
Outline: as §1

[18] = system: Prov. stuartii IFO 12930; assay: MIC by agar dilution, Prov. stuartii IFO 12930; conditions: Providencia stuartii, IFO12930, 17 h, Mueller-Hinton agar, read-out: Minimal Inhibitory Concentration (MIC)
Outline: as §1

[19] = system: Staph. aureus ATCC 6538P; assay: MIC by agar dilution, Staph. aureus ATCC 6538P; conditions: Staphylococcus aureus, ATCC6538P, 17 h; Staph. aureus ATCC 6538P; agar dilution, Mueller-Hinton agar; read-out: Minimal Inhibitory Concentration (MIC)
Outline: as §1

[20] = system: P. vulgaris NCTC 8313; assay: MIC by agar dilution, P. vulgaris NCTC 8313; conditions: Proteus vulgaris, NCTC8313, 17 h; P. vulgaris NCTC 8313; agar dilution, Mueller-Hinton agar; read-out: Minimal Inhibitory Concentration (MIC)
Outline: as §1

MIC [1] | MIC [2] | MIC [3] | MIC [4] | MIC [5] | MIC [6] | MIC [7] | MIC [8] | MIC [9] | MIC [10] | MIC [11] | MIC [12] | MIC [13] | MIC [14] | MIC [15] | MIC [16] | MIC [17] | MIC [18] | MIC [19] | MIC [20] | Structure (SMILES)
0.025 µg/mL (≈ 0.0424 µM) | 25 µg/mL (≈ 42.4 µM) | 3.13 µg/mL (≈ 5.3 µM) | 0.025 µg/mL (≈ 0.0424 µM) | 6.25 µg/mL (≈ 10.6 µM) | 0.025 µg/mL (≈ 0.0424 µM) | 0.39 µg/mL (≈ 0.661 µM) | 0.1 µg/mL (≈ 0.169 µM) | 25 µg/mL (≈ 42.4 µM) | 0.78 µg/mL (≈ 1.32 µM) | 0.05 µg/mL (≈ 0.0847 µM) | 1.56 µg/mL (≈ 2.64 µM) | 0.78 µg/mL (≈ 1.32 µM) | 0.1 µg/mL (≈ 0.169 µM) | 0.025 µg/mL (≈ 0.0424 µM) | 0.05 µg/mL (≈ 0.0847 µM) | 0.05 µg/mL (≈ 0.0847 µM) | 0.025 µg/mL (≈ 0.0424 µM) | 0.78 µg/mL (≈ 1.32 µM) | 0.012 µg/mL (≈ 0.0203 µM) | CO/N=C(\C(=O)N[C@@H]1C(=O)N2C(C(=O)[O-])=C(C[n+]3ccn4c(C(C)=O)cc(Cl)c4c3)CS[C@H]12)c1csc(N)n1 [Ex. 34, 7-β-[(Z)-2-(2-aminothiazol-4-yl)2-methoxyiminoacetamido]-3-(6-acetyl-8-chloropyrrolo[1,2-a]pyrazinium-2-yl)methyl-3-cephem-4-carboxylate]
0.05 µg/mL (≈ 0.0897 µM) | 0.25 µg/mL (≈ 0.448 µM) | 0.78 µg/mL (≈ 1.4 µM) | 0.025 µg/mL (≈ 0.0448 µM) | 3.13 µg/mL (≈ 5.61 µM) | 0.025 µg/mL (≈ 0.0448 µM) | 0.39 µg/mL (≈ 0.699 µM) | 0.1 µg/mL (≈ 0.179 µM) | 50 µg/mL (≈ 89.7 µM) | 1.56 µg/mL (≈ 2.8 µM) | 0.05 µg/mL (≈ 0.0897 µM) | 0.78 µg/mL (≈ 1.4 µM) | 1.56 µg/mL (≈ 2.8 µM) | 0.1 µg/mL (≈ 0.179 µM) | 0.05 µg/mL (≈ 0.0897 µM) | 0.05 µg/mL (≈ 0.0897 µM) | 0.1 µg/mL (≈ 0.179 µM) | 0.012 µg/mL (≈ 0.0215 µM) | 0.2 µg/mL (≈ 0.359 µM) | 0.05 µg/mL (≈ 0.0897 µM) | CO/N=C(\C(=O)N[C@@H]1C(=O)N2C(C(=O)[O-])=C(C[n+]3ccn4c(CO)ccc4c3C)CS[C@H]12)c1csc(N)n1 [Ex. 46, 7-β-[(Z)-2-(2-aminothiazol-4-yl)-2-methoxyiminoacetamido]-3-(6-hydroxymethyl-1-methylpyrrolo[1,2-a]pyrazinium-2-yl)methyl-3-cephem-4-carboxylate]
0.025 µg/mL (≈ 0.0445 µM) | 6.25 µg/mL (≈ 11.1 µM) | 0.39 µg/mL (≈ 0.694 µM) | 0.012 µg/mL (≈ 0.0214 µM) | 3.13 µg/mL (≈ 5.57 µM) | 0.012 µg/mL (≈ 0.0214 µM) | 0.1 µg/mL (≈ 0.178 µM) | 0.05 µg/mL (≈ 0.089 µM) | 6.25 µg/mL (≈ 11.1 µM) | 0.78 µg/mL (≈ 1.39 µM) | 0.025 µg/mL (≈ 0.0445 µM) | 0.39 µg/mL (≈ 0.694 µM) | 0.39 µg/mL (≈ 0.694 µM) | 0.012 µg/mL (≈ 0.0214 µM) | 0.012 µg/mL (≈ 0.0214 µM) | 0.025 µg/mL (≈ 0.0445 µM) | 0.012 µg/mL (≈ 0.0214 µM) | ≤ 0.006 µg/mL | 0.1 µg/mL (≈ 0.178 µM) | ≤ 0.006 µg/mL | CO/N=C(\C(=O)N[C@@H]1C(=O)N2C(C(=O)[O-])=C(C[n+]3ccn4c(Cl)ccc4c3C)CS[C@H]12)c1csc(N)n1 [Ex. 45, 7-β-[(Z)-2-(2-aminothiazol-4-yl)-2-methoxyiminoacetamido]-3-(6-chloro-1-methylpyrrolo[1,2-a]pyrazinium-2-yl)methyl-3-cephem-4-carboxylate]
0.025 µg/mL (≈ 0.0438 µM) | 6.25 µg/mL (≈ 11 µM) | 0.39 µg/mL (≈ 0.683 µM) | 0.025 µg/mL (≈ 0.0438 µM) | 1.56 µg/mL (≈ 2.73 µM) | 0.05 µg/mL (≈ 0.0876 µM) | 0.1 µg/mL (≈ 0.175 µM) | 0.78 µg/mL (≈ 1.37 µM) | 12.5 µg/mL (≈ 21.9 µM) | 1.56 µg/mL (≈ 2.73 µM) | 0.1 µg/mL (≈ 0.175 µM) | 0.78 µg/mL (≈ 1.37 µM) | 1.56 µg/mL (≈ 2.73 µM) | 0.05 µg/mL (≈ 0.0876 µM) | 0.025 µg/mL (≈ 0.0438 µM) | 0.1 µg/mL (≈ 0.175 µM) | 0.025 µg/mL (≈ 0.0438 µM) | 0.025 µg/mL (≈ 0.0438 µM) | 0.2 µg/mL (≈ 0.351 µM) | 0.012 µg/mL (≈ 0.021 µM) | CCON=C(C(=O)NC1C(=O)N2C(C(=O)[O-])=C(C[n+]3ccn4c(C(N)=O)ccc4c3)CSC12)c1csc(N)n1 (stereo not drawn) [Ex. 16, 7-β-[(Z)-2-(2-aminothiazol-4-yl)-2-ethoxyiminoacetamido]-3-(6-carbamoylpyrrolo[1,2-a]pyrazinium-2-yl)methyl-3-cephem-4-carboxylate]

— patent US5593984A, “Cephalosporin derivatives” (Yuhan Corporation, priority 1992, dated 1997)
